Experiments:
S. aureus JE2 = test system: S. aureus JE2; design: method as in PMID 31336137; settings: S. aureus JE2 (USA300 isolate); cited from earlier work
Description: In MRSA, antimicrobial resistance is linked to life-threatening infections, such as pneumonia, sepsis, and endocarditis ([48]). The situation is further complicated by the presence of S. aureus bacteria in alternative physiological states such as biofilms and persister cells, which are often neglected in early antimicrobial drug discovery stages even though they contribute substantially to chronic, relapsing infections ([49]).

[1] = test system: S. aureus VRS1 (VRSA) exponential and persister cells; assay: S. aureus persister cell and time-kill assays (VRS1); format: cell-based, Staphylococcus aureus; settings: approximately 1 × 10^7 CFU
Description: 305 Minimal inhibitory concentration (MIC) assay
We made serial dilutions of 10×
We determined the MIC using OD600
Accordingly, we added 150 mM NaCl,
319 established protocol (5).
323 aureus VRS1) in PBS. To assess the killing kinetics of CIT-8 in persister cells, we added 1 ml of
324 cell suspension to the wells of a 2-ml deep-well assay block (Cat no. 3960, Corning, NY, USA)
We also included ciprofloxacin (at 10 μg/ml) for S.
326 aureus MW2 and linezolid (100 μg/ml) for S. aureus VRS1 as antibiotic controls. Additionally,
327 we included bithionol (at 10 μg/ml) as a positive control, known for its ability to kill stationary
328 phase persister cells (6). We incubated the plates at 37°C, with shaking at 225 rpm. At specific
329 times (0, 15, 30, 60, and 120 min), we collected 10 μl samples, diluted them serially, and then
330 plated them on tryptic soy agar (TSA) (BD Difco, NJ, USA) plates. We incubated the TSA plates
331 for 18 hours at 37°C for colony counting. We performed these experiments in duplicate. As a
332 comparison, we prepared the exponential cells of S. aureus MW2 and VRS1 in PBS and analyzed
333 their killing kinetics in the same manner as described for persister cells.

[2] = test system: S. aureus MW2 24 h established biofilm; settings: crystal violet, 24 h established biofilm, 24 h treatment
Description: 346 plated onto TSA plates, and incubated plates at 37°C overnight. The next day, we counted the
347 viable bacterial colonies.
(§1) We used TSB medium containing
(§2) 356 bacteria with water as the positive control, while TSB media with sterile water served as the
(§3) 357 negative control. After incubation, we carefully removed the TSB medium and washed the wells
(§4) 358 with PBS (Gibco, MD, USA) to remove loosely attached planktonic cells. We quantified the
(§5) 359 biomass by staining the biofilms with crystal violet following an established protocol and
(§6) 360 quantitated the concentration of peptide that inhibits 50% of biofilm formation (MBIC50)(8). We
(§7) 361 measured the live cell count of the biofilms using XTT dye [2,3-bis(2-methyloxy-4-nitro-5-
362 sulfophenyl)-2H-tertazolium-5-carboxanilide] (ATCC, VA, USA). We calculated the percentage
363 of biofilm growth by normalizing to biofilm growth in wells containing bacteria without peptide
366 Disruption of S. aureus MW2 established biofilms
367 We evaluated the ability of the citropin 1.1-derived peptides to disrupt established biofilms
368 following an established protocol with modifications (5). We prepared exponential cultures of S.
369 aureus MW2 (adjusted to 1 × 10^6 CFU/ml) in TSB medium (supplemented with 0.2% glucose)
370 from overnight grown cultures. We added 100 µl of bacterial culture to flat-bottomed 96-well
371 polystyrene microtiter plates (Cat no. 3595, Corning, NY, USA). We then incubated the plates at
372 37°C for 24 hours in static conditions to allow biofilm formation. After incubation, we carefully
373 pipetted out the TSB medium and washed the wells with PBS (Gibco, MD, USA) to remove
374 loosely attached planktonic cells. We treated the established biofilms in each well with 10 µl of
375 serially diluted 10× peptide solution, followed by the addition of 90 μl TSB medium
376 (supplemented with 0.2% glucose). We incubated the plates for another 24 h at 37°C before
377 processing biomass and live-cell contents. We calculated the concentration of peptide that disrupts
378 50% of established biofilms (MBEC50).

[3] = test system: S. aureus MW2 biofilm formation; settings: crystal violet, 24 h
Description: 349 Prevention of S. aureus MW2 biofilm formation
350 We evaluated the ability of the citropin 1.1-derived peptides to inhibit biofilm formation
351 following an established protocol with modifications (5). In short, we prepared exponential
352 cultures of S. aureus MW2 (adjusted to OD600 = 0.01) in TSB medium (supplemented with 0.2%
353 glucose) from overnight cultures. We added 90 µl of the bacterial culture to 10 µl of serially diluted
354 10× peptide solution in flat-bottomed 96-well polystyrene microtiter plates (Cat no. Corning 3595,
as §1, §2, §3, §4, §5, §6, §7
362 sulfophenyl)-2H-tertazolium-5-carboxanilide] (ATCC, VA, USA).

[4] = test system: VRSA (S. aureus VRS1) biofilm; assay: Biofilm viability assay on solid support (VRS1); format: cell-based, Staphylococcus aureus; settings: 40 μg/mL, 24 h established biofilm
[5] = test system: MRSA (S. aureus MW2) biofilm; assay: Biofilm viability assay on solid support (MW2); format: cell-based, Staphylococcus aureus; settings: 40 μg/mL, 24 h established biofilm
S. aureus MW2 membrane = assay: Propidium iodide-based membrane permeability; format: cell-based, Staphylococcus aureus; settings: S. aureus MW2, 60 minutes
Description: 484 min at room temperature in the dark based on a previously established protocol (8). We added 90
485 µl of the dye/bacteria mixture to 10 μl of serially diluted 10× peptide concentration in black, 96-
486 well plates (Cat. no. 3904, Corning, NY, USA) and incubated the plates for 1 hour at room
487 temperature. We measured the fluorescence with excitation and emission wavelengths of 485 nm
488 and 525 nm, respectively in endpoint assay mode using a SpectraMax i3x (Molecular Devices,
489 CA, USA) fluorescence reader.
490 Propidium iodide-based membrane permeability
491 We used a propidium iodide (Thermo Fisher Scientific, MA, USA) fluorescence-based
492 bacterial permeation assay to establish membrane-oriented interactions with the designed peptides
493 based on a previously established protocol (8). We prepared exponential phase S. aureus MW2
494 bacteria and diluted to OD600 = 0.4 in PBS. We added PI dye (final concentration = 2 µM) to the
495 bacteria in 1:10 serial dilutions in black, 96-well plates (Cat. no. 3904, Corning, NY, USA) and
496 incubated the plates for 1 hour at room temperature. We then measured the fluorescence with an
497 excitation wavelength of 584 nm and an emission wavelength of 620 nm in endpoint assay mode
498 using a SpectraMax i3x (Molecular Devices, CA, USA) fluorescence reader.
501 To determine the ATP leakage potential of the peptides, we employed a luciferase-based
502 assay(18). In brief, we washed exponential phase of S. aureus MW2 bacteria three times with PBS
503 (pH 7.4) and adjusted the washed cells to OD600 = 0.4 in PBS. Following treatment of the bacteria
504 with 32 µg/ml of CIT-8 peptide at 37°C for 30 min, we centrifuged the cells at 14,000× g for 5
505 min. We transferred 50 µl of each supernatant fraction to black, clear-bottom, 96-well plates

Compound	MIC (S. aureus JE2)	Time to elimination of exponential and persister cells of VRSA [1]	MBEC50 (50% of biomass disrupted) [2]	MBIC50 (biomass reduced by 50%) [3]	Reduction of VRSA biofilm burden on solid membrane [4]	Reduction of MRSA biofilm burden on solid membrane [5]	Propidium iodide fluorescence (membrane permeation) (S. aureus MW2 membrane)
citropin 1.1	32 µg/mL						
CC[C@H](C)[C@H](NC(=O)CN)C(=O)NCC(=O)N[C@@H](C)C(=O)N[C@H](C(=O)N[C@@H](CC(C)C)C(=O)N[C@@H](CCCCN)C(=O)N[C@H](C(=O)N[C@@H](CC(C)C)C(=O)N[C@H](C(=O)N[C@H](C(=O)NCC(=O)N[C@@H](CC(C)C)C(=O)N1CCC[C@H]1C(=O)N[C@@H](C)C(=O)N[C@@H](CC(C)C)C(=O)N[C@H](C(=O)N[C@@H](CO)C(=O)N[C@@H](Cc1c[nH]c2ccccc12)C(=O)N[C@H](C(=O)N[C@@H](CCCCN)C(=O)N[C@@H](CCCNC(=N)N)C(=O)N[C@@H](CCCCN)C(=O)N[C@@H](CCCNC(=N)N)C(=O)N[C@@H](CCC(N)=O)C(=O)N[C@@H](CCC(N)=O)C(N)=O)[C@@H](C)CC)[C@@H](C)CC)[C@@H](C)O)[C@@H](C)O)C(C)C)C(C)C [melittin, reference compound]		≤ 120 min	2.3 µg/mL	4.8 µg/mL	3.9 logs	1.85 logs	elevated fluorescence levels

— article PMC12165799, “Antimicrobial peptide developed with machine learning sequence optimization targets drug resistant Staphylococcus aureus in mice” (The Journal of Clinical Investigation, 2025)
